According to patent US20170305922A1, “CARM1 INHIBITORS AND USES THEREOF” (Epizyme, Inc., priority 2014, published 2017):

molecular target: T1, Human CARM1 (PRMT4) (Homo sapiens, UniProt Q86X55); assay: CARM1 enzyme assay on peptide substrates (3H-SAM Flashplate); details: Biochemical assay; CARM1 0.25 nM, 3H-SAM 30 nM, peptide 250 nM; read-out: Biochem IC50
T1 construct: Flag-CARM1-His was eluted with 200 ug/ml FLAG peptide in buffer A; made in house; host or cells: HEK 293F cells infected with recombinant baculovirus (pFastBacMam)
T1 sequence (Q86X55 1-585 isoform Q86X55-1): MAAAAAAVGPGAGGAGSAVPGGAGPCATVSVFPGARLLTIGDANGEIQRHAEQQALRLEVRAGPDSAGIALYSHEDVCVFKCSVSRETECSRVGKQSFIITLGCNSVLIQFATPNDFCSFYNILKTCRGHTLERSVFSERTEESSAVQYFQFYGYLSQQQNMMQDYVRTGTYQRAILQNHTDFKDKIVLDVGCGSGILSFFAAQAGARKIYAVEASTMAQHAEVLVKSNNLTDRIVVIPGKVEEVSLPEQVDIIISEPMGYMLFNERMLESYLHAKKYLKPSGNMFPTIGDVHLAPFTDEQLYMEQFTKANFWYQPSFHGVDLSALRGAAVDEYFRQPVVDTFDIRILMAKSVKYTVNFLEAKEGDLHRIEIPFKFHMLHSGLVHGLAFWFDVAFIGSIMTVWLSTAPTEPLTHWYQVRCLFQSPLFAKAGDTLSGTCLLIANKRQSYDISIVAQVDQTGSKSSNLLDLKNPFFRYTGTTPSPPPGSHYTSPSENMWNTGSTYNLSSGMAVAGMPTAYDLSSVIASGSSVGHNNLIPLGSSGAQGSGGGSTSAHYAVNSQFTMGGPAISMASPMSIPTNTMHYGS

SMILES	IC50
CNC[C@@H](O)COc1ccc(Cl)c(-c2nc(-c3c(C)noc3C)c(C)c(N3CC4(CCC(C(=O)N5CC(OC)C5)CC4)C3)n2)c1 [Example 173]	5 nM
CCc1onc(C)c1-c1nc(-c2cc(OC[C@H](O)CNC)ccc2Cl)nc(N2CC3(CCN(C(=O)OC)CC3)C2)c1C [Example 179]	5.1 nM
CNC[C@@H](O)COc1ccc(Cl)c(-c2nc(-c3c(C)noc3C)c(C)c(N3CC(F)(C(=O)N4CCC4)C3)n2)c1 [Example 184]	6.1 nM
CNC[C@@H](O)COc1ccc(Cl)c(-c2nc(-c3c(C)noc3C)c(C)c(N3CC(F)(C(=O)N(C)C)C3)n2)c1 [Example 185]	5.1 nM
CNC[C@@H](O)COc1ccc(Cl)c(-c2nc(-c3c(C)noc3C)c(C)c(N3CC(C)(C(=O)N4CCC4)C3)n2)c1 [Example 187]	5.8 nM
CNC[C@@H](O)COc1ccc(Cl)c(-c2nc(-c3c(C)noc3C)c(C)c(N3CC(C)(C(=O)N(C)C)C3)n2)c1 [Example 188]	5.2 nM
CCC1(C(=O)N2CCC2)CN(c2nc(-c3cc(OC[C@H](O)CNC)ccc3Cl)nc(-c3c(C)noc3C)c2C)C1 [Example 189]	5.7 nM
CCC1(C(=O)N(C)C)CN(c2nc(-c3cc(OC[C@H](O)CNC)ccc3Cl)nc(-c3c(C)noc3C)c2C)C1 [Example 190]	6.2 nM
CNC[C@@H](O)COc1ccc(Cl)c(-c2nc(-c3c(C)noc3C)c(C)c(N3CC4(CCN(C(=O)OCC(F)F)CC4)C3)n2)c1 [Example 191]	10.5 nM
CNC[C@@H](O)COc1ccc(Cl)c(-c2nc(-c3c(C)c(Cl)nn3C)c(C)c(N3CC4(CCN(C(=O)OC)CC4)C3)n2)c1 [Example 192]	4.7 nM
CNC[C@@H](O)COc1ccc(Cl)c(-c2nc(-c3c(C)c(Cl)nn3C)c(C)c(N3CC4(CC(OC)C4)C3)n2)c1 [Example 193]	4.1 nM

Further compounds by falling IC50, results first:

IC50	SMILES
4.1 nM	CNC[C@@H](O)COc1ccc(Cl)c(-c2nc(-c3c(C)noc3C)c(C)c(N3CC4(CCN(C(=O)OCC(F)F)C4)C3)n2)c1 [Example 180]
3.9 nM	CNC[C@@H](O)COc1ccc(Cl)c(-c2nc(-c3c(C)noc3C)c(C)c(N3CC4(CCC(C(=O)N5CCC5)CC4)C3)n2)c1 [Example 174]
3.6 nM	CNC[C@@H](O)COc1ccc(Cl)c(-c2nc(-c3c(C)noc3C)c(C)c(N3CC4=C(CN(C(=O)N(C)C)C4)C3)n2)c1 [Example 177]
2.7 nM	CCOC(=O)N1CC2=C(C1)CN(c1nc(-c3cc(OC[C@H](O)CNC)ccc3Cl)nc(-c3c(C)noc3C)c1C)C2 [Example 176]
2 nM	CNC[C@@H](O)COc1ccc(Cl)c(-c2nc(-c3c(C)noc3C)c(C)c(N3Cc4ccc(N5CCOCC5)nc4C3)n2)c1 [Example 196]
1.8 nM	CNC[C@@H](O)COc1ccc(Cl)c(-c2nc(-c3c(C)noc3C)c(C)c(N3Cc4cnc(N5CCOC5=O)nc4C3)n2)c1 [Example 181]
1.8 nM	CNC[C@@H](O)COc1ccc(Cl)c(-c2nc(-c3c(C)noc3C)c(C)c(N3Cc4cnc(N(C)C)cc4C3)n2)c1 [Example 183]
1.8 nM	CNC[C@@H](O)COc1ccc(Cl)c(-c2nc(-c3c(C)noc3C)c(C)c(N3Cc4ccnc(N(C)C)c4C3)n2)c1 [Example 186]
1.8 nM	CNC[C@@H](O)COc1ccc(Cl)c(-c2nc(-c3c(C)noc3C)c(C)c(N3Cc4cnc(N5CC[C@H]5C)nc4C3)n2)c1 [Example 194]
1.8 nM	CNC[C@@H](O)COc1ccc(Cl)c(-c2nc(-c3c(C)noc3C)c(C)c(N3Cc4cnc(N5CC[C@@H]5C)nc4C3)n2)c1 [Example 195]
1.7 nM	CCc1onc(C)c1-c1nc(-c2cc(OC[C@H](O)CNC)ccc2Cl)nc(N2Cc3cnc(N4CCC4)nc3C2)c1C [Example 175]
1.4 nM	CNC[C@@H](O)COc1ccc(Cl)c(-c2nc(-c3c(C)c(Cl)nn3C)c(C)c(N3Cc4cnc(OCCOC)nc4C3)n2)c1 [Example 178]

test system: asymmetric di-methyl PABP1 in RKO cells; assay: RKO methylation assay: In Cell Western (ICW) for asymmetric di-methyl PABP1 (PABP1me2a); details: Homo sapiens, RKO, 48 h, Cellular-based (PABP1me2a) ICW (In Cell Western) assay
Summary of the method: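 In-cell western on compound-exposed RKO cells (48 hours): asymmetric di-methyl PABP1 detected by antibody at 800 nm, DNA content by DRAQ5 at 700 nm. Percent inhibition from signal ratios against DMSO (minimum) and 20 μM reference compound (maximum) wells; IC50 curves fitted from triplicates.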

SMILES	IC50
CNC[C@@H](O)COc1ccc(Cl)c(-c2nc(-c3c(C)noc3C)c(C)c(N3CC4(CCC(C(=O)N5CC(OC)C5)CC4)C3)n2)c1 [Example 173]	408 nM
CCc1onc(C)c1-c1nc(-c2cc(OC[C@H](O)CNC)ccc2Cl)nc(N2CC3(CCN(C(=O)OC)CC3)C2)c1C [Example 179]	119 nM
CNC[C@@H](O)COc1ccc(Cl)c(-c2nc(-c3c(C)noc3C)c(C)c(N3CC(F)(C(=O)N4CCC4)C3)n2)c1 [Example 184]	488 nM
CNC[C@@H](O)COc1ccc(Cl)c(-c2nc(-c3c(C)noc3C)c(C)c(N3CC(F)(C(=O)N(C)C)C3)n2)c1 [Example 185]	346 nM
CNC[C@@H](O)COc1ccc(Cl)c(-c2nc(-c3c(C)noc3C)c(C)c(N3CC(C)(C(=O)N4CCC4)C3)n2)c1 [Example 187]	337 nM
CNC[C@@H](O)COc1ccc(Cl)c(-c2nc(-c3c(C)noc3C)c(C)c(N3CC(C)(C(=O)N(C)C)C3)n2)c1 [Example 188]	150 nM
CCC1(C(=O)N2CCC2)CN(c2nc(-c3cc(OC[C@H](O)CNC)ccc3Cl)nc(-c3c(C)noc3C)c2C)C1 [Example 189]	246 nM
CCC1(C(=O)N(C)C)CN(c2nc(-c3cc(OC[C@H](O)CNC)ccc3Cl)nc(-c3c(C)noc3C)c2C)C1 [Example 190]	138 nM
CNC[C@@H](O)COc1ccc(Cl)c(-c2nc(-c3c(C)noc3C)c(C)c(N3CC4(CCN(C(=O)OCC(F)F)CC4)C3)n2)c1 [Example 191]	174 nM
CNC[C@@H](O)COc1ccc(Cl)c(-c2nc(-c3c(C)c(Cl)nn3C)c(C)c(N3CC4(CCN(C(=O)OC)CC4)C3)n2)c1 [Example 192]	58 nM
CNC[C@@H](O)COc1ccc(Cl)c(-c2nc(-c3c(C)c(Cl)nn3C)c(C)c(N3CC4(CC(OC)C4)C3)n2)c1 [Example 193]	52 nM

The remaining lines, values ahead:

IC50	SMILES
121 nM	CNC[C@@H](O)COc1ccc(Cl)c(-c2nc(-c3c(C)noc3C)c(C)c(N3CC4(CCN(C(=O)OCC(F)F)C4)C3)n2)c1 [Example 180]
271 nM	CNC[C@@H](O)COc1ccc(Cl)c(-c2nc(-c3c(C)noc3C)c(C)c(N3CC4(CCC(C(=O)N5CCC5)CC4)C3)n2)c1 [Example 174]
87 nM	CNC[C@@H](O)COc1ccc(Cl)c(-c2nc(-c3c(C)noc3C)c(C)c(N3CC4=C(CN(C(=O)N(C)C)C4)C3)n2)c1 [Example 177]
26 nM	CCOC(=O)N1CC2=C(C1)CN(c1nc(-c3cc(OC[C@H](O)CNC)ccc3Cl)nc(-c3c(C)noc3C)c1C)C2 [Example 176]
20 nM	CNC[C@@H](O)COc1ccc(Cl)c(-c2nc(-c3c(C)noc3C)c(C)c(N3Cc4ccc(N5CCOCC5)nc4C3)n2)c1 [Example 196]
459 nM	CNC[C@@H](O)COc1ccc(Cl)c(-c2nc(-c3c(C)noc3C)c(C)c(N3Cc4cnc(N5CCOC5=O)nc4C3)n2)c1 [Example 181]
31 nM	CNC[C@@H](O)COc1ccc(Cl)c(-c2nc(-c3c(C)noc3C)c(C)c(N3Cc4cnc(N(C)C)cc4C3)n2)c1 [Example 183]
49 nM	CNC[C@@H](O)COc1ccc(Cl)c(-c2nc(-c3c(C)noc3C)c(C)c(N3Cc4ccnc(N(C)C)c4C3)n2)c1 [Example 186]
13 nM	CNC[C@@H](O)COc1ccc(Cl)c(-c2nc(-c3c(C)noc3C)c(C)c(N3Cc4cnc(N5CC[C@H]5C)nc4C3)n2)c1 [Example 194]
13 nM	CNC[C@@H](O)COc1ccc(Cl)c(-c2nc(-c3c(C)noc3C)c(C)c(N3Cc4cnc(N5CC[C@@H]5C)nc4C3)n2)c1 [Example 195]
13 nM	CCc1onc(C)c1-c1nc(-c2cc(OC[C@H](O)CNC)ccc2Cl)nc(N2Cc3cnc(N4CCC4)nc3C2)c1C [Example 175]
24 nM	CNC[C@@H](O)COc1ccc(Cl)c(-c2nc(-c3c(C)c(Cl)nn3C)c(C)c(N3Cc4cnc(OCCOC)nc4C3)n2)c1 [Example 178]
